Source: US10357537B2, “Cyclotides as immunosuppressive agents” (priority 2011, dated 2019)
Bridge positions count the residues as written; N and C are the ends. Peptide text beside a SMILES is read from it.

Legend:
[1] = system: IL-2 mRNA in PHA-L-activated cells; assay: IL-2 gene expression, real-time PCR; assay type: cell-based, human; conditions: 4 hours, vs control
Description: C. IL-2 gene expression analysis using RT-PCR. […] RT-PCR was carried out using specific primers for indicated gene. The data were normalized to the Ct value of the internal housekeeping gene 18s rRNA and the relative mRNA level in the untreated stimulated group was used as calibrator. Data were expressed as mean+SD of three independent experiments.
Total RNA was extracted from controls or treated cells (2×10^6) frozen at −80° C. RNA-purification was performed according to the manufacturer's instructions for the RNeasy mini and Rnase-Free Dnase Set digestion kits (Qiagen, Hilden, Germany). The quantity and purity of extracted RNA was measured by spectrophotometry (Nanodrop, Peqlab, Erlangen, Germany) and purified RNA was reverse transcribed using the RT^2 First Stand Kit (Qiagen, Hilden, Germany).
RT-PCR reactions were carried out on a BioRad MyiQ (BioRad, Munich, Germany) in a final volume of 25 μL using RT^2 qPCR Primer Assay (for IL-2) and SYBR® Green qPCR Mastermix (both from Qiagen, Hilden, Germany). […] Results were expressed as relative gene expression of IL-2 and were determined by comparative Ct method. […]
To determine whether cyclotides have an impact at the gene expression level of the, il-2 gene expression (as control we used 18s rRNA) in PBMC cells was investigated by quantitative real-time PCR (FIG. 12C).

[2] = system: TNF-alpha production of activated PBMCs; assay: TNF-alpha secretion of PBMC, ELISA-based FACS; assay type: cell-based, human; conditions: 24 h + 6 h PMA/ionomycin; T20K 4 μM, CsA 5 μg/mL
Description: FIG. 15. […] Untreated cells were used as control. Following 24 h or 36 h of cultivation, the cells were restimulated with PMA/Ionomycin for further 6 hour. […] The data are presented as mean and standard deviation (SD) of three independent experiments.
Activated cells were resuspended in 50 μl of medium, transferred into a 96-well plate and treated with 10 μg/ml PHA-L. After incubation for 24 h cells were re-stimulated with PMA (50 ng/ml) und ionomycin (500 ng/ml) for 6 h. Next, the cells were transferred into Eppendorf tubes, centrifuged (5 min, 3000 RPM, 20° C.) und 50 μl of the supernatant was again transferred into new tubes and stored at −20° C. Production of cytokines was measured and quantified using the FlowCytomix™ kit according to manufacturer's instructions.
Therefore it is of interest to determine whether cyclotides only have anti-proliferative effects or also affect the effector function of T-lymphocytes, which would directly relate to changes in the IFN-gamma and TNF-alpha production. Therefore, the production of both cytokines of cyclotide-treated, activated PBMCs at an early time point after PBMC activation was tested.

[3] = system: EAE-induced C57BL/6J mice; assay: EAE in C57BL/6J mice treated with T20K, clinical score; assay type: in vivo, mouse
Description: FIG. 19. Effect on clinical EAE score. After induction of EAE, mice treated with T20K and naïve mice were scored every second day, starting at day 10.
Mice (n=10/group) were treated on day (−7), 0, 7 with 200 μg/100 μL/mouse T20K solubilized in sterile PBS intraperitoneally (i.p.), as indicated in the figure. On day 0 they were immunized subcutaneously with myelin oligodendrocyte glycoprotein (MOG35-55, 1 mg/mL) and complete Freud's adjuvant (CFA, 10 mg/mL) mixed at equal parts. Therefore 70 μL were injected into the left and right flank. Additionally mice received 100 μL pertussis toxin (2 μg/mL) i.p. on day 0 and again on day 2. Beginning at day 10 mice were scored every second day. Weight was also measured at day (−7), 0, 7 and on the same day during scoring.

## CC(C)C[C@@H]1NC(=O)CNC(=O)[C@H](CC(N)=O)NC(=O)[C@H](CCCNC(=N)N)NC(=O)[C@H]([C@@H](C)O)NC(=O)[C@@H]2CSSC[C@@H]3NC(=O)[C@H]([C@@H](C)O)NC(=O)CNC(=O)CNC(=O)[C@H](C(C)C)NC(=O)[C@@H]4CSSC[C@H](NC(=O)[C@H](CCCCN)NC(=O)[C@H](CSSC[C@H](NC(=O)[C@H](C(C)C)NC(=O)[C@@H]5CCCN5C1=O)C(=O)NCC(=O)N[C@@H](CCC(=O)O)C(=O)N[C@@H]([C@@H](C)O)C(=O)N4)NC(=O)CNC(=O)[C@@H]1CCCN1C(=O)[C@H]([C@@H](C)O)NC(=O)[C@H](CC(N)=O)NC3=O)C(=O)N[C@@H](CO)C(=O)N[C@@H](Cc1c[nH]c3ccccc13)C(=O)N1CCC[C@H]1C(=O)N[C@@H](C(C)C)C(=O)N2 [Kalata T20K] (cyclo(CGETCVGGTCNTPGCKCSWPVCTRNGLPV); disulfide 1-15, 5-17, 10-22 (inferred); ring closure inferred)
[1]
  level of IL-2 mRNA: clearly decreases the level of IL-2 mRNA
[2]
  TNF-alpha expression as compared to the control, 24 h: 23%±10.6
[3]; T20K 200 μg/100 μL/mouse i.p. on day -7, 0 or 7, vs naive group
  clinical EAE score / symptoms: delayed and minor symptoms of EAE
[3]; mice treated seven days before EAE induction, Dunnett's test
  prophylactic effect on clinical EAE score: demonstrate significantly the prophylactic effect
